Where a name gives a salt, the structure may show the parent alone.
Tests used:
[1] = target: T1, Dopamine D2 receptor (Rattus norvegicus, UniProt P61169); test: Dopamine D2 receptor binding assay ([3H]-raclopride); conditions: Dopamine D2 receptor binding test, rat corpus striatum membrane, Ki calculated from IC50 by Cheng-Prussoff formula
T1 construct: from tissue; host or cells: Wistar rat brain, corpus striatum membranes
Method: 1) Dopamine D2 Receptor Binding Assay
The assay was performed according to the method by Kohler et al. (Kohler C, Hall H, Ogren S O and Gawell L, Specific in vitro and in vivo binding of 3H-raclopride. A potent substituted benzamide drug with high affinity for dopamine D-2 receptors in the rat brain. Biochem. Pharmacol., 1985; 34: 2251-2259).
Wistar male rats were decapitated, the brain was retrieved immediately and corpus striatum was taken out. It was homogenized in 50 mM tris(hydroxymethyl)aminomethane (Tris)-hydrochloric acid buffer (pH 7.4) of a volume 50 times of the weight of the tissue using a homogenizer with a high-speed rotating blade, and centrifuged at 4° C., 48,000×g for 10 minutes. The obtained precipitate was suspended again in the above-described buffer of a volume 50 times of the weight of the tissue and after incubated at 37° C. for 10 minutes, centrifuged in the above-described condition. The obtained precipitate was suspended in 50 mM (Tris)-hydrochloric acid buffer (containing 120 mM NaCl, 5 mM KCl, 2 mM CaCl2, 1 mM MgCl2, pH 7.4) of a volume 25 times of the weight of the tissue and preserved by freezing at −85° C. till it was used for binding assay as a membrane specimen.
The binding assay was performed using 40 μl of the membrane specimen, 20 μl of [^3H]-raclopride (final concentration 1 to 2 nM), 20 μl of a test drug and 50 mM Tris-hydrochloric acid buffer (containing 120 mM NaCl, 5 mM KCl, 2 mM CaCl2, 1 mM MgCl2, pH 7.4) so that the total amount was 200 μl (final dimethylsulfoxide concentration 1%). The reaction was performed at room temperature for 1 hour and terminated by conducting suction filtration with a cell harvester on a glass fiber filter plate. The filter plate made of glass fiber was washed with 50 mM Tris-hydrochloric acid buffer (pH 7.4), and after dried, a microplate liquid scintillation cocktail was added and the radioactivity was measured with a microplate scintillation counter. Radioactivity in the presence of 10 μM (+)-butaclamol hydrochloride was assumed as nonspecific binding.
(§1) IC50 value was calculated from concentration-dependent reaction using a non-linear analysis program. Ki value was calculated from IC50 value using Cheng-Prussoff formula.

[2] = target: T2, Serotonin 5-HT2A receptor (Rattus norvegicus, UniProt P14842); test: Serotonin 5-HT2A receptor binding assay ([3H]-Ketanserin); conditions: Serotonin 5-HT2A receptor binding test, rat frontal cortex membrane, Ki calculated from IC50 by Cheng-Prussoff formula
T2 construct: from tissue; host or cells: Wistar rat brain, frontal cortex membranes
T2 sequence (P14842 whole entry): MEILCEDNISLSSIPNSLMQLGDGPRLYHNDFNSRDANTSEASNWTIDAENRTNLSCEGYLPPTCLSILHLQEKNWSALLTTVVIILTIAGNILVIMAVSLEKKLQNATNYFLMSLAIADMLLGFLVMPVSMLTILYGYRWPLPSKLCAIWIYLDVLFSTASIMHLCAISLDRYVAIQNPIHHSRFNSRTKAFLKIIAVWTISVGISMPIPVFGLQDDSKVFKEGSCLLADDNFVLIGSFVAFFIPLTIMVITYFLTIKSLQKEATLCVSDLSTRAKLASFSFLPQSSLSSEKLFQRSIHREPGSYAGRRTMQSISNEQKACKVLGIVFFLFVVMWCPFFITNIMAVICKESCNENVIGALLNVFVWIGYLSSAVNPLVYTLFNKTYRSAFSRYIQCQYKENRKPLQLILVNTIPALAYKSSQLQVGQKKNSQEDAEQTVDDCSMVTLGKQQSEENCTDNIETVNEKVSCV
Method: 2) Serotonin 5-HT2A Receptor Binding Assay
The assay was performed according to the method by Leysen J E et al. (Leysen J E, Niemegeers C J E, Van Nueten J M and Laduron P M. [3H] Ketanserin (R 41 468), a selective 3H-ligand for serotonin 2 receptor binding sites. Mol. Pharmacol., 1982, 21: 301-314).
Wistar male rats were decapitated, the brain was retrieved immediately and frontal cortex was taken out. It was homogenized in 0.25 M sucrose of a volume 10 times of the weight of the tissue using a Teflon glass homogenizer, and centrifuged at 4° C., 1,000×g for 10 minutes. The obtained supernatant was transferred to another centrifuge tube and suspended in 0.25 M sucrose of a volume 5 times of the weight of the tissue and the precipitate was centrifuged in the above-described condition. The obtained supernatant was combined with the supernatant obtained above and adjusted to a volume 40 times of the weight of the tissue with 50 mM Tris-hydrochloric acid buffer (pH 7.4), and centrifuged at 4° C., 35,000×g for 10 minutes. The obtained precipitate was suspended again in the above-described buffer of a volume 40 times of the weight of the tissue and centrifuged in the above-described condition. The obtained precipitate was suspended in the above-described buffer of a volume 20 times of the weight of the tissue and preserved by freezing at −85° C. till it was used for binding assay as a membrane specimen.
The binding assay was performed using 40 μl of the membrane specimen, 20 μl of [^3H]-Ketanserin (final concentration 1 to 3 nM), 20 μl of a test drug and 50 mM Tris-hydrochloric acid buffer (pH 7.4) so that the total amount was 200 μl (final dimethylsulfoxide concentration 1%). The reaction was performed at 37° C. for 20 minutes and terminated by conducting suction filtration with a cell harvester on a glass fiber filter plate.
The filter plate made of glass fiber was washed with 50 mM Tris-hydrochloric acid buffer (pH 7.4), and after dried, a microplate liquid scintillation cocktail was added and the radioactivity was measured with a microplate scintillation counter. Radioactivity in the presence of 10 μM spiperone was assumed as nonspecific binding.
as §1

T1 sequence (P61169 whole entry): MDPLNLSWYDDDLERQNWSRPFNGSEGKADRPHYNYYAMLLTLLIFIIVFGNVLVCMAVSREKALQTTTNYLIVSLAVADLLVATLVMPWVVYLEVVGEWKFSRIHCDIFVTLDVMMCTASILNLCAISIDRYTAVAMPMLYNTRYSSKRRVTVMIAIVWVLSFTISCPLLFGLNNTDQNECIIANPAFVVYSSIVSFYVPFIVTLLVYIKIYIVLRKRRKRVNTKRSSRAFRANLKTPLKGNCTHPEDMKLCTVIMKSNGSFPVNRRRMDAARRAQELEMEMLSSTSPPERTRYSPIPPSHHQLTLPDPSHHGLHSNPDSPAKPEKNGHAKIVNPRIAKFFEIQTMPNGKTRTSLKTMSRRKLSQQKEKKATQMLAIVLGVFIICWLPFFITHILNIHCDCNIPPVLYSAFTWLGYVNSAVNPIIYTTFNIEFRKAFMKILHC

| melting point | Ki [1] | Ki [2] | SMILES |
| --- | --- | --- | --- |
| 259 °C (dec.) | – | – | CN(C)Cc1ccc(OCCCN2CCN(c3cccc4sccc34)CC2)c(Cl)c1 (as salt: hydrochloride) [Example 303] |
| – | 0.4 nM | 2.4 nM | O=C1Cc2ccc(OCCCCN3CCN(c4cccc5sccc45)CC3)cc2N1 [Example 127] |
| – | 1.6 nM | 1.9 nM | CCS(=O)(=O)Nc1ccc(OCCCN2CCN(c3cccc4sccc34)CC2)cc1 [Example 345] |
| – | 1.9 nM | 3.5 nM | O=C1CCCc2ccc(OCCCN3CCN(c4cccc5sccc45)CC3)cc2N1 [Example 1026] |
| – | 1.9 nM | 2.3 nM | Cn1cnc2ccc(OCCCN3CCN(c4cccc5sccc45)CC3)cc2c1=O [Example 95] |
| – | 0.7 nM | 1.4 nM | CN1Cc2ccc(OCCCN3CCN(c4cccc5sccc45)CC3)cc2C1=O [Example 123] |
| – | 3.1 nM | 0.6 nM | Cc1ccc(OCCCN2CCN(c3cccc4sccc34)CC2)cn1 [Example 40] |
| – | 1.6 nM | 3.3 nM | c1cc(N2CCN(CCCCOc3ccncc3)CC2)c2ccsc2c1 [Example 80] |
| – | 2.5 nM | 1.4 nM | CCNC(=O)c1ccnc(OCCCN2CCN(c3cccc4sccc34)CC2)c1 [Example 32] |
| – | 0.2 nM | 1.1 nM | COc1cc(N2CCCC2=O)cc(CO)c1OCCCN1CCN(c2cccc3sccc23)CC1 [Example 359] |
| – | 3.4 nM | 3.4 nM | CCNC(=O)c1cc(OCCCN2CCN(c3cccc4sccc34)CC2)no1 [Example 72] |
| – | 2 nM | 3.9 nM | O=C1CCc2ccc(OCCCN3CCN(c4cccc5sccc45)CC3)cc21 [Example 125] |
| – | 1 nM | 0.7 nM | O=c1[nH]c2ccc(OCCCN3CCN(c4cccc5sccc45)CC3)cc2[nH]1 [Example 112] |
| – | 0.2 nM | 1.1 nM | COc1cc(N2CCOC2=O)cc(C)c1OCCCN1CCN(c2cccc3sccc23)CC1 [Example 358] |
| – | 3.3 nM | 4.2 nM | CC1(C)C(=O)Nc2ccc(OCCCN3CCN(c4cccc5sccc45)CC3)cc21 [Example 1014] |
| – | 0.4 nM | 0.6 nM | CCN(CC)CCNC(=O)c1ccc(OCCCN2CCN(c3cccc4sccc34)CC2)cc1 [Example 160] |
| – | 2.5 nM | 1.7 nM | CNC(=O)c1cc(OCCCN2CCN(c3cccc4sccc34)CC2)cs1 [Example 76] |
| – | 0.9 nM | 0.5 nM | CC(=O)Nc1ccc(OCCCN2CCN(c3cccc4sccc34)CC2)cc1 [Example 343] |
| – | 2.1 nM | 3.1 nM | CN1CC(=O)N(C)c2ccc(OCCCN3CCN(c4cccc5sccc45)CC3)cc2C1=O [Example 1034] |
| – | 2 nM | 4.9 nM | CNC(=O)c1cc(OCCCN2CCN(c3cccc4sccc34)CC2)ncn1 [Example 58] |
| – | 1 nM | 2.5 nM | CN(C)Cc1ccc(OCCCN2CCN(c3cccc4sccc34)CC2)c(Cl)c1 [Example 303] |
| – | 0.1 nM | 2.4 nM | O=C1NCc2ccc(OCCCCN3CCN(c4cccc5sccc45)CC3)cc2N1 [Example 146] |
| – | 1 nM | 0.9 nM | O=C(c1ccc(OCCCN2CCN(c3cccc4sccc34)CC2)cc1)N1CCN(c2ccncc2)CC1 [Example 706] |
| – | 0.8 nM | 2.9 nM | NC(=O)c1csc(OCCCN2CCN(c3cccc4sccc34)CC2)n1 [Example 7, 2-[3-(4-benzo[b]thiophen-4-yl-piperazin-1-yl)propoxy]thiazole-4-carboxamide] |

| melting point | Ki [1] | Ki [2] | SMILES |
| --- | --- | --- | --- |
| – | 1.2 nM | 0.6 nM | O=C(NCCCn1ccnc1)c1ccc(OCCCN2CCN(c3cccc4sccc34)CC2)cc1 [Example 650] |
| – | 2.6 nM | 0.8 nM | CCNC(=O)c1ccc(OCCCN2CCN(c3cccc4sccc34)CC2)nc1 [Example 26] |
| – | 0.4 nM | 0.7 nM | CCN(CC)CCc1ccc(OCCCN2CCN(c3cccc4sccc34)CC2)cc1 [Example 368] |
| – | 0.5 nM | 0.6 nM | CN(C)CCc1ccc(OCCCN2CCN(c3cccc4sccc34)CC2)cc1 [Example 382] |
| – | 0.1 nM | 1.4 nM | COc1cc(N2CCN(C(C)=O)CC2)cc(CO)c1OCCCN1CCN(c2cccc3sccc23)CC1 [Example 1084] |
| – | 2.2 nM | 2.3 nM | Cn1c(=O)oc2cc(OCCCN3CCN(c4cccc5sccc45)CC3)ccc21 [Example 1016] |
| – | 1.3 nM | 5.6 nM | CCNC(=O)c1csc(OCCCN2CCN(c3cccc4sccc34)CC2)n1 [Example 73] |
| – | 0.6 nM | 3.4 nM | COC(=O)N(C)c1cc(C)c(OCCCN2CCN(c3cccc4sccc34)CC2)c(OC)c1 [Example 17, methyl N-methyl-{4-[3-(4-benzo[b]thiophen-4-yl-piperazin-1-yl)propoxy]-3-methoxy-5-methylphenyl}carbamate hydrochloride] |
| – | 1.1 nM | 1.5 nM | Cn1cnc2cc(OCCCN3CCN(c4cccc5sccc45)CC3)ccc21 [Example 121] |
| – | 1.6 nM | 3.7 nM | Cc1cc(=O)oc2cc(OCCCN3CCN(c4cccc5sccc45)CC3)ccc12 [Example 115] |
| – | 2 nM | 1.1 nM | COC(=O)Nc1ccc(OCCCN2CCN(c3cccc4sccc34)CC2)c(F)c1 [Example 363] |
| – | 1.9 nM | 7.7 nM | Cn1nc(C(N)=O)cc1OCCCN1CCN(c2cccc3sccc23)CC1 [Example 4, 5-[3-(4-benzo[b]thiophen-4-yl-piperazin-1-yl)propoxy]-1-methyl-1H-pyrazole-3-carboxamide] |
| – | 1.9 nM | 2 nM | O=C1CCOc2cc(OCCCN3CCN(c4cccc5sccc45)CC3)ccc2N1 [Example 1027] |
| – | 0.6 nM | 0.7 nM | CC(C)N(CCNC(=O)c1ccc(OCCCN2CCN(c3cccc4sccc34)CC2)cc1)C(C)C [Example 546] |
| – | 0.4 nM | 1.4 nM | CC1Oc2ccc(OCCCCN3CCN(c4cccc5sccc45)CC3)cc2NC1=O (stereo not drawn) [Example 144] |
| – | 0.3 nM | 0.6 nM | CNC(=O)c1ccc(OC)c(OCCCN2CCN(c3cccc4sccc34)CC2)c1 [Example 281] |
| – | 0.3 nM | 0.7 nM | CCN(C)Cc1ccc(OCCCN2CCN(c3cccc4sccc34)CC2)c(C)c1 [Example 307] |
| – | 0.3 nM | 4.7 nM | O=C1Nc2cc(OCCCCN3CCN(c4cccc5sccc45)CC3)ccc2CO1 [Example 133] |
| – | 0.8 nM | 0.8 nM | CN1CCN(Cc2ccc(OCCCN3CCN(c4cccc5sccc45)CC3)cc2)CC1 [Example 314] |
| – | 0.2 nM | 0.8 nM | CCNCc1ccc(OCCCN2CCN(c3cccc4sccc34)CC2)cc1 [Example 286] |
| – | 0.7 nM | 1.1 nM | c1cc(N2CCN(CCCOc3ccc(CN4CCOCC4)cc3)CC2)c2ccsc2c1 [Example 313] |
| – | 1.6 nM | 4.7 nM | CCNC(=O)c1cc(OCCCN2CCN(c3cccc4sccc34)CC2)n(C)n1 [Example 62] |
| – | 0.2 nM | 0.6 nM | COc1cc(NC=O)cc(C)c1OCCCN1CCN(c2cccc3sccc23)CC1 [Example 354] |

— patent US8071600B2, “Derivatives of 4-piperazin-1-yl-4-benzo[B]thiophene suitable for the treatment of CNS disorders” (Otsuka Pharmaceutical Co., Ltd., priority 2005, dated 2011)
